Tests used:
[1] = biological target: GDP-bound NRAS wild-type protein (Homo sapiens, UniProt P01111); test: Binding to NRAS by surface plasmon resonance (SPR), Single Cycle Kinetics; settings: SPR, GDP-bound NRAS wild-type protein vs GDP-bound KRAS wild-type protein
[2] = biological target: GDP-bound HRAS wild-type protein (Homo sapiens, UniProt P01112); test: Binding to HRAS by surface plasmon resonance (SPR), Single Cycle Kinetics; settings: SPR, GDP-bound HRAS wild-type protein vs GDP-bound KRAS wild-type protein
[3] = test system: human lung cancer strain NCI-H441;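 note: cell proliferation inhibition after four days measured by CellTiter-Glo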

Sequence of GDP-bound NRAS wild-type protein (P01111 whole entry): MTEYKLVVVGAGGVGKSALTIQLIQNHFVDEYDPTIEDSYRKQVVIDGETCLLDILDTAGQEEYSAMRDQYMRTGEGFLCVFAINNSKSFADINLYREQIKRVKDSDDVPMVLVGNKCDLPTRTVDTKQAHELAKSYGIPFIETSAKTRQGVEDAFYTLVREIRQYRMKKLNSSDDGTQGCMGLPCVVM
Sequence of GDP-bound HRAS wild-type protein (P01112 whole entry): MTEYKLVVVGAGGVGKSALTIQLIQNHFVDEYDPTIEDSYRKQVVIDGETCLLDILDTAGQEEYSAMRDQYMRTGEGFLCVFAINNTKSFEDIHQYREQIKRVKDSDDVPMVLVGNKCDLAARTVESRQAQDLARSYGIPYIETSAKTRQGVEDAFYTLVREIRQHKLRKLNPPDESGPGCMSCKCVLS

SMILES | NRAS/KRAS (ratio of KD value with respect to NRAS to KD value with respect to KRAS) [1] | HRAS/KRAS (ratio of KD value with respect to HRAS to KD value with respect to KRAS) [2] | IC50 [3] [nM]
CC[C@H](C)[C@@H]1NC(=O)[C@H](CC(C)C)N(C)C(=O)C[C@@H](C(=O)N2CCOCC2)N(C)C(=O)[C@H](C2CCCC2)N(C)C(=O)C2(CCCC2)NC(=O)[C@@H]2CCCN2C(=O)[C@H](CCc2ccc(C(F)(F)F)c(Cl)c2)NC(=O)CN(C)C(=O)[C@H](Cc2ccccc2)N2CCCC[C@@H](C2=O)N(C)C(=O)CN(C)C1=O [PP0529] | C (A compound having a KD ratio of 0.1 or more and less than 3 is denoted as C) | B (a compound having 3 or more and less than 10 is denoted as B) | 6.5
CC[C@H](C)[C@@H]1NC(=O)[C@H](CC(C)C)N(C)C(=O)C[C@@H](C(=O)N2CCOCC2)N(C)C(=O)[C@H](C2CCCC2)N(C)C(=O)C2(CCCC2)NC(=O)[C@@H]2CCCN2C(=O)[C@H](CCc2ccc(C(F)(F)F)c(Cl)c2)NC(=O)CN(C)C(=O)[C@H](Cc2ccc(F)cc2)N2CCCC[C@@H](C2=O)N(C)C(=O)CN(C)C1=O [PP0530] | C (A compound having a KD ratio of 0.1 or more and less than 3 is denoted as C) | B (a compound having 3 or more and less than 10 is denoted as B) | 7
CC[C@H](C)[C@@H]1NC(=O)[C@H](CC(C)C)N(C)C(=O)C[C@@H](C(=O)N2CCOCC2)N(C)C(=O)[C@H](C2CCCC2)N(C)C(=O)C2(CCCC2)NC(=O)[C@@H]2CCCN2C(=O)[C@H](CCc2ccc(C(F)(F)F)c(Cl)c2)NC(=O)CN(C)C(=O)[C@H](Cc2ccc(Cl)cc2)N2CCCC[C@@H](C2=O)N(C)C(=O)CN(C)C1=O [PP0532] | C (A compound having a KD ratio of 0.1 or more and less than 3 is denoted as C) | B (a compound having 3 or more and less than 10 is denoted as B) | 6.9
CC[C@H](C)[C@@H]1NC(=O)[C@H](CC(C)C)N(C)C(=O)C[C@@H](C(=O)N2CCOCC2)NC(=O)[C@H](C2CCCC2)N(C)C(=O)C2(CCCC2)NC(=O)[C@@H]2CCCN2C(=O)[C@H](CCc2cc(F)c(C(F)(F)F)c(F)c2)NC(=O)CN(C)C(=O)[C@H](Cc2ccc(C(F)(F)F)cc2)N2CCCC[C@@H](C2=O)N(C)C(=O)CN(C)C1=O [PP0541] | B (a compound having 3 or more and less than 10 is denoted as B) | B (a compound having 3 or more and less than 10 is denoted as B) | 83.3
CC[C@H](C)[C@@H]1NC(=O)[C@H](CC(C)C)N(C)C(=O)C[C@@H](C(=O)N2CCOCC2)N(C)C(=O)[C@H](C2CCCC2)N(C)C(=O)C2(CCCC2)NC(=O)[C@@H]2CCCN2C(=O)[C@H](CCc2ccc(C(F)(F)F)c(Cl)c2)NC(=O)CN(C)C(=O)[C@H](Cc2ccc(F)cc2)N2C/C=C\CC[C@@H](C2=O)N(C)C(=O)CN(C)C1=O [PP0607] | C (A compound having a KD ratio of 0.1 or more and less than 3 is denoted as C) | B (a compound having 3 or more and less than 10 is denoted as B) | 119
CC[C@H](C)[C@@H]1NC(=O)[C@H](CC(C)C)N(C)C(=O)C[C@@H](C(=O)N2CCOCC2)N(C)C(=O)[C@H](C2CCCC2)N(C)C(=O)C2(CCCC2)NC(=O)[C@@H]2CCCN2C(=O)[C@H](CCc2ccc(C(F)(F)F)c(Cl)c2)NC(=O)CN(C)C(=O)[C@H](Cc2ccc(OC)cc2)N2C/C=C\CC[C@@H](C2=O)N(C)C(=O)CN(C)C1=O [PP0609] | B (a compound having 3 or more and less than 10 is denoted as B) | B (a compound having 3 or more and less than 10 is denoted as B) | 468
CC[C@H](C)[C@@H]1NC(=O)[C@H](CC(C)C)N(C)C(=O)C[C@@H](C(=O)N2CCOCC2)N(C)C(=O)[C@H](C2CCCC2)N(C)C(=O)C2(CCCC2)NC(=O)[C@@H]2CCCN2C(=O)[C@H](CCc2ccc(C(F)(F)F)c(Cl)c2)NC(=O)CN(C)C(=O)[C@H](Cc2ccccc2)N2CCCCC[C@@H](C2=O)N(C)C(=O)CN(C)C1=O [PP0611] | B (a compound having 3 or more and less than 10 is denoted as B) | B (a compound having 3 or more and less than 10 is denoted as B) | 88.9
CC[C@H](C)[C@@H]1NC(=O)[C@H](CC(C)C)N(C)C(=O)C[C@@H](C(=O)N(C)C)N(C)C(=O)[C@H](C2CCCC2)N(C)C(=O)C2(CCCC2)NC(=O)[C@@H]2CCCN2C(=O)[C@H](CCc2ccc(C(F)(F)F)c(Cl)c2)NC(=O)CN(C)C(=O)[C@H](Cc2ccc(C)cc2)N2CC/C=C(/C)C[C@@H](C2=O)N(C)C(=O)CN(C)C1=O [PP0616] | B (a compound having 3 or more and less than 10 is denoted as B) | B (a compound having 3 or more and less than 10 is denoted as B) | 73.8
CC[C@H](C)[C@@H]1NC(=O)[C@H](CC(C)C)N(C)C(=O)C[C@@H](C(=O)N(C)C)N(C)C(=O)[C@@H](C2CCCC2)N(C)C(=O)C2(CCCC2)NC(=O)[C@@H]2CCCN2C(=O)[C@H](CCc2ccc(C(F)(F)F)c(Cl)c2)NC(=O)CN(C)C(=O)[C@H](Cc2ccc(C(F)(F)F)cc2)N2CC/C=C(/C)C[C@@H](C2=O)N(C)C(=O)CN(C)C1=O [PP0617] | B (a compound having 3 or more and less than 10 is denoted as B) | B (a compound having 3 or more and less than 10 is denoted as B) | 159
CC[C@H](C)[C@@H]1NC(=O)[C@@H](CC(C)C)N(C)C(=O)C[C@@H](C(=O)N(C)C)N(C)C(=O)[C@@H](C2CCCC2)N(C)C(=O)C2(CCCC2)NC(=O)[C@@H]2CCCN2C(=O)[C@H](CCc2ccc(C(F)(F)F)c(Cl)c2)NC(=O)CN(C)C(=O)[C@@H](Cc2ccc(C(F)(F)F)cc2)N2CC/C=C\CCN(CC2=O)C(=O)CN(C)C1=O [PP0619] | C (A compound having a KD ratio of 0.1 or more and less than 3 is denoted as C) | C (A compound having a KD ratio of 0.1 or more and less than 3 is denoted as C) | 70.7
CC[C@H](C)[C@@H]1NC(=O)[C@H](CC(C)C)N(C)C(=O)C[C@@H](C(=O)N(C)C)N(C)C(=O)[C@H](C2CCCC2)N(C)C(=O)C2(CCCC2)NC(=O)[C@@H]2CCCN2C(=O)[C@H](CCc2ccc(C(F)(F)F)c(Cl)c2)NC(=O)CN(C)C(=O)[C@H](Cc2ccc(C)cc2)N2CC=C(C)C[C@@H](C2=O)N(C)C(=O)CN(C)C1=O [PP0620] | C (A compound having a KD ratio of 0.1 or more and less than 3 is denoted as C) | C (A compound having a KD ratio of 0.1 or more and less than 3 is denoted as C) | 38.4
CC[C@H](C)[C@@H]1NC(=O)[C@@H](CC(C)C)N(C)C(=O)C[C@@H](C(=O)N(C)C)N(C)C(=O)[C@H](C2CCCC2)N(C)C(=O)C2(CCCC2)NC(=O)[C@@H]2CCCN2C(=O)[C@@H](CCc2ccc(C(F)(F)F)c(Cl)c2)NC(=O)CN(C)C(=O)[C@@H](Cc2ccc(C(F)(F)F)cc2)N2C/C=C\COC[C@@H](C2=O)N(C)C(=O)CN(C)C1=O [PP0626] | C (A compound having a KD ratio of 0.1 or more and less than 3 is denoted as C) | C (A compound having a KD ratio of 0.1 or more and less than 3 is denoted as C) | 158
CCO[C@@H]1C[C@H]2C(=O)NC3(CCC3)C(=O)N(C)[C@@H](C3CCCC3)C(=O)N(CCC3CCCC3)[C@H](C(=O)N3CCOCC3)CC(=O)N(C)[C@@H](CC(C)C)C(=O)N[C@@H]([C@@H](C)CC)C(=O)N(C)CC(=O)N(C)[C@H]3CCCCCN(C3=O)[C@@H](Cc3ccc(C(F)(F)F)cc3)C(=O)N(C)CC(=O)N[C@@H](CCc3cc(F)c(C(F)(F)F)c(F)c3)C(=O)N2C1 [PP0641] | A (a compound having 10 or more and less than 20 is denoted as A) | A (a compound having 10 or more and less than 20 is denoted as A) | > 1300
CCO[C@@H]1C[C@H]2C(=O)NC3(CCC3)C(=O)N(C)[C@@H](C3CCCC3)C(=O)N(C)[C@H](C(=O)N(C)C)CC(=O)N(C)[C@@H](CC(C)(C)C)C(=O)N[C@@H]([C@@H](C)CC)C(=O)N(C)CC(=O)N(C)[C@H]3CCCCCN(C3=O)[C@@H](Cc3ccc(C(F)(F)F)cc3)C(=O)N(C)CC(=O)N[C@@H](CCc3cc(F)c(C(F)(F)F)c(F)c3)C(=O)N2C1 [PP0669] | B (a compound having 3 or more and less than 10 is denoted as B) | B (a compound having 3 or more and less than 10 is denoted as B) | 20.3
CCO[C@@H]1C[C@H]2C(=O)NC3(CCC3)C(=O)N(C)[C@@H](C3CCCC3)C(=O)N(C)[C@H](C(=O)N(C)C)CC(=O)N(C)[C@@H](CC3CCCC3)C(=O)N[C@@H]([C@@H](C)CC)C(=O)N(C)CC(=O)N(C)[C@H]3CCCCCN(C3=O)[C@@H](Cc3ccc(C(F)(F)F)cc3)C(=O)N(C)CC(=O)N[C@@H](CCc3cc(F)c(C(F)(F)F)c(F)c3)C(=O)N2C1 [PP0670] | B (a compound having 3 or more and less than 10 is denoted as B) | B (a compound having 3 or more and less than 10 is denoted as B) | 11.3

From patent US20240158446A1, “CYCLIC COMPOUND HAVING SELECTIVE INHIBITORY ACTION ON KRAS OVER HRAS AND NRAS” (CHUGAI SEIYAKU KABUSHIKI KAISHA, priority 2021, published 2024)
